Legend:
Test in all cases: Cell panel nuclear dye assay
Assay type in all cases: cell-based
SW620 = settings: Homo sapiens, SW-620, 120 h, Colon, 5-day incubation
Procedure: (§1) Cells were grown in RPMI1640, 10% FBS, 2 mM L-alanyl-L-glutamine, 1 mM Na pyruvate, or a special medium. Cells were seeded into 384-well plates and incubated in a humidified atmosphere of 5% CO2 at 37° C. Compound was added the day following cell seeding. At the same time, a time zero untreated cell plate was generated. After a 5-day incubation period, cells were fixed and stained to allow fluorescence imaging of nuclei.
(§2) Compounds were serially diluted in 2-fold steps from the highest test concentration specified, and assayed over 10 concentrations with a maximum assay concentration of 0.1% DMSO. Automated fluorescence microscopy was carried out using a Molecular Devices ImageXpress Micro XL high-content imager, and images were collected with a 4× objective. 16-bit TIFF images were acquired and analyzed with MetaXpress 5.1.0.41 software.
(§3) Cell proliferation was measured by the fluorescence intensity of an incorporated nuclear dye. The output is referred to as the relative cell count, where the measured nuclear intensity is transformed to percent of control (POC) using the following formula: […]
(§4) Cell count IC50 is the test compound concentration at 50% of maximal possible response. EC50 is the test compound concentration at the curve inflection point or half the effective response (parameter C of the fitted curve solution). GI50 is the concentration needed to reduce the observed growth by half (midway between the curve maximum and the time zero value). Activity area is an estimate of the integrated area above the curve. Activity area values range from 0-10, where a value of zero indicates no inhibition of proliferation at all concentrations, and a value of 10 indicates complete inhibition of proliferation at all concentrations. In rare instances, values <0 or >10 may be observed. In these instances, values <0 should be considered as equivalent to 0, whereas values >10 should be considered equivalent to 10.

SHP-77 = settings: Homo sapiens, SHP77, 120 h, Lung (SCLC), 5-day incubation
Procedure: as §1, §2, §3, §4

KHOS-240S = settings: 120 h, Osteosarcoma, 5-day incubation
Procedure: as §1, §2, §3, §4

SK-N-AS = settings: Homo sapiens, 120 h, Neuroblastoma, 5-day incubation
Procedure: as §1, §2, §3, §4

TUR = settings: 120 h, Lymphoma (histiocytic), 5-day incubation
Procedure: as §1, §2, §3, §4

Jiyoye = settings: Homo sapiens, 120 h, Lymphoma (Burkitt's), 5-day incubation
Procedure: as §1, §2, §3, §4

A172 = settings: Homo sapiens, A 172, 120 h, Glioma (glioblastoma), 5-day incubation
Procedure: as §1, §2, §3, §4

NCI-H747 = settings: Homo sapiens, 120 h, Colon (cecum), 5-day incubation
Procedure: as §1, §2, §3, §4

HOS = settings: Homo sapiens, 120 h, Osteosarcoma, 5-day incubation
Procedure: as §1, §2, §3, §4

OE21 = settings: 120 h, Head & neck (squamous cell carcinoma, esophagus), 5-day incubation
Procedure: as §1, §2, §3, §4

SW1088 = settings: Homo sapiens, 120 h, Glioma (astrocytoma), 5-day incubation
Procedure: as §1, §2, §3, §4

DK-MG = settings: 120 h, Glioma, 5-day incubation
Procedure: as §1, §2, §3, §4

NCI-H441 = settings: Homo sapiens, 120 h, Lung (NSCLC), 5-day incubation
Procedure: as §1, §2, §3, §4

SR = settings: Homo sapiens, 120 h, Lymphoma (large cell immunoblastic), 5-day incubation
Procedure: as §1, §2, §3, §4

SW48 = settings: Homo sapiens, 120 h, Colon, 5-day incubation
Procedure: as §1, §2, §3, §4

SNB-19 = settings: Homo sapiens, 120 h, Glioma (astrocytoma), 5-day incubation
Procedure: as §1, §2, §3, §4

BCP-1 = settings: 120 h, Lymphoma (B-cell), 5-day incubation
Procedure: as §1, §2, §3, §4

5637 = settings: 120 h, Bladder, 5-day incubation
Procedure: as §1, §2, §3, §4

CRO-AP2 = settings: Homo sapiens, 120 h, Lymphoma, 5-day incubation
Procedure: as §1, §2, §3, §4

A101D = settings: Homo sapiens, 120 h, Melanoma, 5-day incubation
Procedure: as §1, §2, §3, §4

MeWo = settings: Homo sapiens, 120 h, Melanoma, 5-day incubation
Procedure: as §1, §2, §3, §4

CHP-212 = settings: Homo sapiens, 120 h, Neuroblastoma, 5-day incubation
Procedure: as §1, §2, §3, §4

NCI-H446 = settings: Homo sapiens, 120 h, Lung (SCLC), 5-day incubation
Procedure: as §1, §2, §3, §4

OE33 = settings: Homo sapiens, 120 h, Head & neck (esophageal carcinoma), 5-day incubation
Procedure: as §1, §2, §3, §4

A-253 = settings: Homo sapiens, A253, 120 h, Head & neck (epidermoid carcinoma, salivary gland), 5-day incubation
Procedure: as §1, §2, §3, §4

NC(=O)c1ncn2c(=O)n(CCOC(F)(F)F)nnc12 [Compound I-1, 4-Oxo-3-(2-(trifluoromethoxy)ethyl)-3,4-dihydroimidazo[5,1-d][1,2,3,5]tetrazine-8-carboxamide]
70 to 150 µM: EC50 (SW620) | IC50 (SW620) | IC50 (SHP-77) | IC50 (A172) | EC50 (SW1088) | IC50 (SW1088) | EC50 (A-253) | IC50 (A-253)
30 to 70 µM: EC50 (SHP-77) | EC50 (Jiyoye) | IC50 (Jiyoye) | EC50 (A172) | EC50 (HOS) | IC50 (HOS) | EC50 (OE21) | IC50 (OE21) | IC50 (DK-MG) | EC50 (SNB-19) | IC50 (SNB-19) | EC50 5637 | IC50 5637 | EC50 (NCI-H446) | IC50 (NCI-H446) | EC50 (OE33) | IC50 (OE33)
≤ 30 µM: EC50 (TUR) | IC50 (TUR) | EC50 (DK-MG) | EC50 (SR) | IC50 (SR) | EC50 (SW48) | IC50 (SW48) | EC50 (BCP-1) | IC50 (BCP-1) | EC50 (CRO-AP2) | IC50 (CRO-AP2) | EC50 (A101D) | IC50 (A101D) | EC50 (CHP-212) | IC50 (CHP-212)
> 150 µM: EC50 (KHOS-240S) | IC50 (KHOS-240S) | EC50 (SK-N-AS) | IC50 (SK-N-AS) | EC50 (NCI-H747) | IC50 (NCI-H747) | EC50 (NCI-H441) | IC50 (NCI-H441) | EC50 (MeWo) | IC50 (MeWo)
